Measured values taken from ChEMBL document CHEMBL1150080, “Asimilobin and cis- and trans-murisolinones, novel bioactive Annonaceous acetogenins from the seeds of Asimina triloba” (J Nat Prod, 1995).
In brackets after ≈: the same amount, converted by molar mass.

How the values were obtained:
[1] = Toxicity to brine shrimp larvae; format: organism-based; conditions: artemia, in vivo
A549 = assay: Cytotoxicity against human A549 cells after 7 days by MTT assay; format: functional; conditions: A549, 168 h, read-out: ED50 (the source's name)
MCF7 = assay: Cytotoxicity against human MCF7 cells after 7 days by MTT assay; format: functional; conditions: MCF7, 168 h, read-out: ED50 (the source's name)
HT-29 = assay: Cytotoxicity against human HT-29 cells after 7 days by MTT assay; format: functional; conditions: HT-29, 168 h, read-out: ED50 (the source's name)
A498 = assay: Cytotoxicity against human A498 cells after 7 days by MTT assay; format: functional; conditions: A498, 168 h, read-out: ED50 (the source's name)
PC-3 = assay: Cytotoxicity against human PC3 cells after 7 days by MTT assay; format: functional; conditions: PC-3, 168 h, read-out: ED50 (the source's name)
MIA PaCa-2 = assay: Cytotoxicity against human MIAPaCa2 cells after 7 days by MTT assay; format: functional; conditions: MIA PaCa-2, 168 h, read-out: ED50 (the source's name)

| Compound | LC50 [1] [µg/mL] | EC50 (A549) [µg/mL] | EC50 (MCF7) [µg/mL] | EC50 (HT-29) [µg/mL] | EC50 (A498) [µg/mL] | EC50 (PC-3) [µg/mL] | EC50 (MIA PaCa-2) [µg/mL] |
| --- | --- | --- | --- | --- | --- | --- | --- |
| CCCCCCCCCCC[C@@H](O)[C@H]1CC[C@H]([C@H](O)CCCCCCCCCC[C@H]2C[C@H](CC(C)=O)C(=O)O2)O1 | 18.2 (≈ 32.1 µM) | 0.0276 (≈ 0.0487 µM) | 0.0296 (≈ 0.0522 µM) | 1.16 (≈ 2.05 µM) | 1.23 (≈ 2.17 µM) | 0.214 (≈ 0.378 µM) | 0.0059 (≈ 0.0104 µM) |
| CCCCCCCCCCC[C@@H](O)[C@H]1CC[C@H]([C@H](O)CCCCCCCCCC[C@@H]2C[C@H](CC(C)=O)C(=O)O2)O1 | 12.3 (≈ 21.7 µM) | 0.148 (≈ 0.261 µM) | 0.0793 (≈ 0.14 µM) | 0.754 (≈ 1.33 µM) | 3.44 (≈ 6.07 µM) | 1.48 (≈ 2.61 µM) | 0.107 (≈ 0.189 µM) |
| COc1cccc2c1C(=O)c1c(O)c3c(c(O)c1C2=O)C[C@@](O)(C(=O)CO)C[C@@H]3O[C@H]1C[C@H](N)[C@H](O)[C@H](C)O1 [DOXORUBICIN] | – | 0.00101 (≈ 0.00186 µM) | 0.0103 (≈ 0.019 µM) | 0.0262 (≈ 0.0482 µM) | – | 0.0196 (≈ 0.0361 µM) | 0.00132 (≈ 0.00243 µM) |
| CCCCCCCCCCCCCC[C@H](O)[C@@H]1CC[C@@H]([C@@H]2CC[C@@H](CCCCC[C@@H](O)CC3=C[C@H](C)OC3=O)O2)O1 [ASIMILOBIN] | 1.06 (≈ 1.83 µM) | 0.0301 (≈ 0.052 µM) | 2.14 (≈ 3.7 µM) | 0.063 (≈ 0.109 µM) | 0.0226 (≈ 0.039 µM) | 1.47 (≈ 2.54 µM) | 0.104 (≈ 0.18 µM) |
